Experimental data taken from patent US20060293307A1, “Oxazolidinone derivatives as antimicrobials” (priority 2002, published 2006).
≈ marks a conversion by molar mass, not a printed value.

What was measured:
[1] = tested on: H. influenzae 49766; assay: MIC against Haemophilus strains; type: cell-based
[2] = tested on: S. pneumoniae AB 29; assay: MIC, agar incorporation method; type: cell-based, Streptococcus pneumoniae
[3] = tested on: S. epidermidis (MRSE) 23760; assay: MIC, agar incorporation method; type: cell-based, Staphylococcus epidermidis
[4] = tested on: S. aureus (MRSA 33) Cipro R; assay: MIC, agar incorporation method; type: cell-based, Staphylococcus aureus
[5] = tested on: S. aureus (MRSA) 21299; assay: MIC, agar incorporation method; type: cell-based, Staphylococcus aureus
[6] = tested on: S. pneumoniae AB 23; assay: MIC, agar incorporation method; type: cell-based, Streptococcus pneumoniae
[7] = tested on: S. pneumoniae AB4; assay: MIC, agar incorporation method; type: cell-based, Streptococcus pneumoniae
[8] = tested on: Moraxella cata. M2; assay: MIC, agar incorporation method; type: cell-based
[9] = tested on: S. pneumoniae AB-2; assay: MIC, agar incorporation method; type: cell-based, Streptococcus pneumoniae
[10] = tested on: S. pyogenes 20361; assay: MIC, agar incorporation method; type: cell-based, Streptococcus pyogenes
[11] = tested on: S. aureus ATCC 25923; assay: MIC, agar incorporation method; type: cell-based, Staphylococcus aureus
[12] = tested on: E. faecalis 21777; assay: MIC, agar incorporation method; type: cell-based
[13] = tested on: E. faecalis SP 346 (VRE); assay: MIC, agar incorporation method; type: cell-based
[14] = tested on: K. oxytoca 49131; assay: MIC, agar incorporation method; type: cell-based
[15] = tested on: S. pneumoniae AB 10; assay: MIC, agar incorporation method; type: cell-based, Streptococcus pneumoniae
[16] = tested on: E. faecalis 29212; assay: MIC, agar incorporation method; type: cell-based
[17] = tested on: S. pyogenes 19615; assay: MIC, agar incorporation method; type: cell-based, Streptococcus pyogenes
[18] = tested on: P. aeruginosa ATCC 27853; assay: MIC, agar incorporation method; type: cell-based
[19] = tested on: S. pneumoniae AB 17; assay: MIC, agar incorporation method; type: cell-based, Streptococcus pneumoniae
[20] = tested on: S. epidermidis ATCC 12228; assay: MIC, agar incorporation method; type: cell-based, Staphylococcus epidermidis
[21] = tested on: S. pneumoniae 1256; assay: MIC, agar incorporation method; type: cell-based, Streptococcus pneumoniae
[22] = tested on: S. pneumoniae AB-3; assay: MIC, agar incorporation method; type: cell-based, Streptococcus pneumoniae
[23] = tested on: S. pneumoniae AB 30; assay: MIC, agar incorporation method; type: cell-based, Streptococcus pneumoniae
[24] = tested on: S pneumoniae 1294.; assay: MIC, agar incorporation method; type: cell-based, Streptococcus pneumoniae
[25] = tested on: S. pneumoniae 1275; assay: MIC, agar incorporation method; type: cell-based, Streptococcus pneumoniae
[26] = S. No. 11, S. epidermidis (MRSE) 23760
[27] = S. No. 7, S. aureus (MRSA 33) Cipro R
[28] = S. No. 5, S. aureus (MRSA) 21299
[29] = S. No. 20, E. faecalis SP 346 (VRE)
[30] = S. No. 28, P. aeruginosa ATCC 27853
[31] = S. No. 10, S. epidermidis ATCC 12228

Compound: C[C@H](Cl)C(=O)NCC1CN(c2ccc(N3CCN(c4ccc([N+](=O)[O-])s4)CC3)c(F)c2)C(=O)O1 (stereo partly drawn) [Compound No. 7, (S)—N-[[3-[3-Fluoro-4-[N-1-{4-(5-nitro-2-thienyl)piperazinyl}]-phenyl]-2-oxo-5-oxazolidinyl]-methyl]-2-chloro-propionamide]
- MIC ([1]; s. No. 6, H. influenzae 49766): >16 µg/mL
- MIC ([2]; S. No. 46, S. pneumoniae AB 29): 0.5 µg/mL (≈ 0.977 µM)
- MIC [3, 26]: 4 µg/mL (≈ 7.81 µM)
- MIC [4, 27]: >8 µg/mL
- MIC [5, 28]: >8 µg/mL
- MIC ([6]; S. No. 43, S. pneumoniae AB 23): 1 µg/mL (≈ 1.95 µM)
- MIC ([7]; S. No. 33, S. pneumoniae AB4): 0.5 µg/mL (≈ 0.977 µM)
- MIC ([8]; S. No. 59, Moraxella cata. M2): >8 µg/mL
- MIC ([9]; S. No. 31, S. pneumoniae AB-2): 0.5 µg/mL (≈ 0.977 µM)
- MIC ([10]; S. No. 53, S. pyogenes 20361): 2 µg/mL (≈ 3.91 µM)
- MIC ([11]; S. No. 1, organism cell empty): >8 µg/mL
- MIC ([12]; S. No. 18, E. faecalis 21777): >8 µg/mL
- MIC [13, 29]: >8 µg/mL
- MIC ([14]; S. No. 27, K. oxytoca 49131): >8 µg/mL
- MIC ([15]; S. No. 35, S. pneumoniae AB 10): 0.5 µg/mL (≈ 0.977 µM)
- MIC ([16]; S. No. 17, E. faecalis 29212): >8 µg/mL
- MIC ([17]; S. No. 51, S. pyogenes 19615): 2 µg/mL (≈ 3.91 µM)
- MIC [18, 30]: >8 µg/mL
- MIC ([19]; S. No. 40, S. pneumoniae AB 17): 1 µg/mL (≈ 1.95 µM)
- MIC [20, 31]: 1 µg/mL (≈ 1.95 µM)
- MIC ([21]; S. No. 56, S. pneumoniae 1256): 0.25 µg/mL (≈ 0.488 µM)
- MIC ([22]; S. No. 32, S. pneumoniae AB-3): 0.5 µg/mL (≈ 0.977 µM)
- MIC ([23]; S. No. 47, S. pneumoniae AB 30): 0.5 µg/mL (≈ 0.977 µM)
- MIC ([24]; S. No. 55, S pneumoniae 1294.): 2 µg/mL (≈ 3.91 µM)
- MIC ([25]; S. No. 57, S. pneumoniae 1275): 0.25 µg/mL (≈ 0.488 µM)

Compound: O=C(NC[C@H]1CN(c2ccc(N3CCN(c4ccc([N+](=O)[O-])s4)CC3)c(F)c2)C(=O)O1)C(F)F [Compound No. 8, (S)—N-[[3-[3-Fluoro-4-[4-(5-nitro-2-thienyl)-1-piperazinyl]phenyl]-2-oxo-5-oxazolidinyl]methyl]difluoroacetamide]
- MIC ([1]; Haemophilus influenzae, 49766): > 16 µg/mL
- MIC ([2]; Streptococcus pneumoniae, AB29): 0.25 µg/mL (≈ 0.501 µM)
- MIC ([3]; Staphylococcus epidermidis, MRSE): 0.25 µg/mL (≈ 0.501 µM)
- MIC ([4]; Staphylococcus aureus, MRSA): 2 µg/mL (≈ 4 µM)
- MIC ([5]; Staphylococcus aureus, MRSA): 2 µg/mL (≈ 4 µM)
- MIC ([6]; Streptococcus pneumoniae, AB23): 0.25 µg/mL (≈ 0.501 µM)
- MIC ([7]; Streptococcus pneumoniae, AB4): 0.125 µg/mL (≈ 0.25 µM)
- MIC ([8]; Moraxella, CATA.M2): 1 µg/mL (≈ 2 µM)
- MIC ([9]; Streptococcus pneumoniae, AB2): 0.125 µg/mL (≈ 0.25 µM)
- MIC ([10]; Streptococcus pyogenes, 20361): 0.25 µg/mL (≈ 0.501 µM)
- MIC ([11]; Staphylococcus aureus, ATCC25923): 2 µg/mL (≈ 4 µM)
- MIC ([12]; Enterococcus faecalis, 21777): 2 µg/mL (≈ 4 µM)
- MIC ([13]; Enterococcus faecalis, VRE): 0.25 µg/mL (≈ 0.501 µM)
- MIC ([14]; Klebsiella oxytoca, 49131): > 8 µg/mL
- MIC ([15]; Streptococcus pneumoniae, AB10): 0.125 µg/mL (≈ 0.25 µM)
- MIC ([16]; Enterococcus faecalis, 29212): 0.25 µg/mL (≈ 0.501 µM)
- MIC ([17]; Streptococcus pyogenes, 19615): 0.25 µg/mL (≈ 0.501 µM)
- MIC ([18]; Pseudomonas aeruginosa, ATCC27853): > 8 µg/mL
- MIC ([19]; Streptococcus pneumoniae, AB17): 0.25 µg/mL (≈ 0.501 µM)
- MIC ([20]; Staphylococcus epidermidis, ATCC12228): 0.125 µg/mL (≈ 0.25 µM)
- MIC ([21]; Streptococcus pneumoniae, 1256): 0.125 µg/mL (≈ 0.25 µM)
- MIC ([22]; Streptococcus pneumoniae, AB3): 0.125 µg/mL (≈ 0.25 µM)
- MIC ([23]; Streptococcus pneumoniae, AB30): 0.25 µg/mL (≈ 0.501 µM)
- MIC ([24]; Streptococcus pneumoniae, 1294.): 0.25 µg/mL (≈ 0.501 µM)
- MIC ([25]; Streptococcus pneumoniae, 1275): 0.06 µg/mL (≈ 0.12 µM)

Compound: O=C(NC[C@H]1CN(c2ccc(N3CCN(c4ccc([N+](=O)[O-])s4)CC3)c(F)c2)C(=O)O1)C(Cl)Cl [compound 9, (S)—N-[[3-[-3-Fluoro-4-[N-1-(5-nitro-2-thienyl)-piperazinyl]phenyl] -2-oxo-5-oxazolidinyl]methyl]dichloroacetamide]
- MIC ([1]; s. No. 6, H. influenzae 49766): >16 µg/mL
- MIC ([2]; S. No. 46, S. pneumoniae AB 29): 0.25 µg/mL (≈ 0.47 µM)
- MIC [3, 26]: 0.5 µg/mL (≈ 0.939 µM)
- MIC [4, 27]: 1 µg/mL (≈ 1.88 µM)
- MIC [5, 28]: 1 µg/mL (≈ 1.88 µM)
- MIC ([6]; S. No. 43, S. pneumoniae AB 23): 0.25 µg/mL (≈ 0.47 µM)
- MIC ([7]; S. No. 33, S. pneumoniae AB4): 0.25 µg/mL (≈ 0.47 µM)
- MIC ([8]; S. No. 59, Moraxella cata. M2): 1 µg/mL (≈ 1.88 µM)
- MIC ([9]; S. No. 31, S. pneumoniae AB-2): 0.25 µg/mL (≈ 0.47 µM)
- MIC ([10]; S. No. 53, S. pyogenes 20361): 0.5 µg/mL (≈ 0.939 µM)
- MIC ([11]; S. No. 1, organism cell empty): 2 µg/mL (≈ 3.76 µM)
- MIC ([12]; S. No. 18, E. faecalis 21777): 0.5 µg/mL (≈ 0.939 µM)
- MIC [13, 29]: 0.5 µg/mL (≈ 0.939 µM)
- MIC ([14]; S. No. 27, K. oxytoca 49131): >8 µg/mL
- MIC ([15]; S. No. 35, S. pneumoniae AB 10): 0.25 µg/mL (≈ 0.47 µM)
- MIC ([16]; S. No. 17, E. faecalis 29212): 1 µg/mL (≈ 1.88 µM)
- MIC ([17]; S. No. 51, S. pyogenes 19615): 0.5 µg/mL (≈ 0.939 µM)
- MIC [18, 30]: >8 µg/mL
- MIC ([19]; S. No. 40, S. pneumoniae AB 17): 0.25 µg/mL (≈ 0.47 µM)
- MIC [20, 31]: 0.25 µg/mL (≈ 0.47 µM)
- MIC ([21]; S. No. 56, S. pneumoniae 1256): 0.25 µg/mL (≈ 0.47 µM)
- MIC ([22]; S. No. 32, S. pneumoniae AB-3): 0.25 µg/mL (≈ 0.47 µM)
- MIC ([23]; S. No. 47, S. pneumoniae AB 30): 0.25 µg/mL (≈ 0.47 µM)
- MIC ([24]; S. No. 55, S pneumoniae 1294.): 0.5 µg/mL (≈ 0.939 µM)
- MIC ([25]; S. No. 57, S. pneumoniae 1275): 0.25 µg/mL (≈ 0.47 µM)
